Reference: PMC8150913, “Chromene-Containing Aromatic Sulfonamides with Carbonic Anhydrase Inhibitory Properties” (International Journal of Molecular Sciences, 2021)

Experiments:
hCA I = molecular target: T1, hCA I (Homo sapiens, UniProt P00915); experiment: Stopped-flow CA-catalyzed CO2 hydration inhibition assay; assay type: biochemical; conditions: stopped flow technique, mean from three different assays, recombinant enzyme, pH 7.4
T1 construct: made in house
Method: (§1) An Applied Photophysics stopped-flow instrument was used for assaying the CA catalyzed CO2 hydration activity. Phenol red (at a concentration of 0.2 mM) was used as an indicator, working at the absorbance maximum of 557 nm, with 20 mM Hepes (pH 7.4) as a buffer, and 20 mM Na2SO4 (for maintaining constant ionic strength), following the initial rates of the CA-catalyzed CO2 hydration reaction for a period of 10–100 s. The CO2 concentrations ranged from 1.7 to 17 mM for the determination of the kinetic parameters and inhibition constants. […] However, the background activity from the uncatalyzed reaction is always subtracted when IC50 values are obtained by using the data analysis software for the stopped flow instrument. […] For each inhibitor, at least six traces of the initial 5–10% of the reaction were used for determining the initial velocity. The uncatalyzed rates were determined in the same manner and subtracted from the total observed rates. Stock solutions of the inhibitor (0.1 mM) were prepared in distilled, deionized water, and dilutions up to 0.01 nM were done thereafter with the assay buffer. Inhibitor and enzyme solutions were preincubated together for 15 min at room temperature prior to the assay, allowing the formation of the E–I complex. The inhibition constants were obtained by non-linear least-squares methods using PRISM 3 and the Cheng-Prusoff equation as reported earlier, which represent the mean from at least three different determinations. All CA isoforms were recombinant proteins obtained in house, as reported earlier.

hCA II = molecular target: T2, hCA II (Homo sapiens, UniProt P00918); experiment: as above; assay type: biochemical; conditions: for Ki: stopped flow technique, mean from three different assays, recombinant enzyme, pH 7.4
T2 construct: made in house
Method: as §1

hCA IX = molecular target: T3, hCA IX (Homo sapiens, UniProt Q16790); experiment: as above; assay type: biochemical; conditions: stopped flow technique, mean from three different assays, recombinant enzyme, pH 7.4
T3 construct: made in house
Method: as §1

hCA XII = molecular target: T4, hCA XII (Homo sapiens, UniProt O43570); experiment: as above; assay type: biochemical; conditions: stopped flow technique, mean from three different assays, recombinant enzyme, pH 7.4
T4 construct: made in house
T4 sequence (O43570 25-354): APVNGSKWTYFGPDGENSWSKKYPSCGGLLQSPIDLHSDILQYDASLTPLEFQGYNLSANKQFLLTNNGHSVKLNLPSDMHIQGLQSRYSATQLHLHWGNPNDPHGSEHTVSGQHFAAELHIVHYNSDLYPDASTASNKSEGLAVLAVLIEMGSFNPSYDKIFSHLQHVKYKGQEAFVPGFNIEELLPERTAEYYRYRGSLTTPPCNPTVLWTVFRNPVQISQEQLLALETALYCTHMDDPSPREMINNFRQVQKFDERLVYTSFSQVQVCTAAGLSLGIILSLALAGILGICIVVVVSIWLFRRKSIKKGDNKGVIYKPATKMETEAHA
Method: as §1

T1 sequence (P00915 whole entry): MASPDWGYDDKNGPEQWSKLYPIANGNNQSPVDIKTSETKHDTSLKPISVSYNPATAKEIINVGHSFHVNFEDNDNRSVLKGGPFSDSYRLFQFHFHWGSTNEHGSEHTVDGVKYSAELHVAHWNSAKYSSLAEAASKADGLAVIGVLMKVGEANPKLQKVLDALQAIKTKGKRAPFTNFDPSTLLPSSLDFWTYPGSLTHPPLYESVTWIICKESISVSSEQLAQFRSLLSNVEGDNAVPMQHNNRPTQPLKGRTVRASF

NS(=O)(=O)c1ccc(NC(=O)c2cc(=O)c3ccccc3o2)cc1 [5a, 4-Oxo-N-(4-sulfamoylphenyl)-4H-chromene-2-carboxamide]
Ki (hCA I): 525 ± 44.4 nM
Ki (hCA II): 35.1 ± 3.3 nM
Ki (hCA IX): 16.6 ± 1.5 nM
Ki (hCA XII): 20.1 ± 1.7 nM
melting point: 296 to 298 °C

Cc1ccc2oc(C(=O)Nc3ccc(S(N)(=O)=O)cc3)cc(=O)c2c1 [5b, 6-Methyl-4-oxo-N-(4-sulfamoylphenyl)-4H-chromene-2-carboxamide]
Ki (hCA I): 5310 ± 272 nM
Ki (hCA II): 95.9 ± 8 nM
Ki (hCA IX): 77 ± 6.5 nM
Ki (hCA XII): 64.8 ± 6.1 nM
melting point: 307 to 308 °C

Cc1ccc2c(=O)cc(C(=O)Nc3ccc(S(N)(=O)=O)cc3)oc2c1 [5c, 7-Methyl-4-oxo-N-(4-sulfamoylphenyl)-4H-chromene-2-carboxamide]
Ki (hCA I): 3560 ± 228 nM
Ki (hCA II): 39.5 ± 3.2 nM
Ki (hCA IX): 63.4 ± 6.3 nM
Ki (hCA XII): 50.8 ± 4.3 nM
melting point: 309 to 311 °C

CCc1ccc2oc(C(=O)Nc3ccc(S(N)(=O)=O)cc3)cc(=O)c2c1 [5d, 6-Ethyl-4-oxo-N-(4-sulfamoylphenyl)-4H-chromene-2-carboxamide]
melting point: 297 to 299 °C

Cc1cc2oc(C(=O)Nc3ccc(S(N)(=O)=O)cc3)cc(=O)c2cc1C [5e, 6,7-Dimethyl-4-oxo-N-(4-sulfamoylphenyl)-4H-chromene-2-carboxamide]
Ki (hCA I): 2890 ± 161 nM
Ki (hCA II): 311 ± 28.3 nM
Ki (hCA IX): 299 ± 18.4 nM
Ki (hCA XII): 619 ± 36.7 nM
melting point: 310 to 312 °C

Cc1ccc2c(=O)cc(C(=O)Nc3ccc(S(N)(=O)=O)cc3)oc2c1C [5f, 7,8-Dimethyl-4-oxo-N-(4-sulfamoylphenyl)-4H-chromene-2-carboxamide]
Ki (hCA I): 341 ± 29.6 nM
Ki (hCA II): 9.3 ± 0.5 nM
Ki (hCA IX): 19.5 ± 1.6 nM
Ki (hCA XII): 76.3 ± 6 nM
melting point: 328 to 330 °C

Cc1cc(C)c2c(=O)cc(C(=O)Nc3ccc(S(N)(=O)=O)cc3)oc2c1 [5g, 5,7-Dimethyl-4-oxo-N-(4-sulfamoylphenyl)-4H-chromene-2-carboxamide]
Ki (hCA I): 682 ± 40.6 nM
Ki (hCA II): 61.4 ± 4.4 nM
Ki (hCA IX): 54.7 ± 5 nM
Ki (hCA XII): 46.4 ± 4.4 nM
melting point: 304 to 306 °C

Cc1cc(C)c2oc(C(=O)Nc3ccc(S(N)(=O)=O)cc3)cc(=O)c2c1 [5h, 6,8-Dimethyl-4-oxo-N-(4-sulfamoylphenyl)-4H-chromene-2-carboxamide]
Ki (hCA I): 505 ± 27 nM
Ki (hCA II): 46.6 ± 2.9 nM
Ki (hCA IX): 22.5 ± 1.9 nM
Ki (hCA XII): 26.8 ± 1.4 nM
melting point: 309 to 311 °C

NS(=O)(=O)c1ccc(NC(=O)c2cc(=O)c3cc(Cl)ccc3o2)cc1 [5i, 6-Chloro-4-oxo-N-(4-sulfamoylphenyl)-4H-chromene-2-carboxamide]
Ki (hCA I): 2700 ± 265 nM
Ki (hCA II): 66.2 ± 5.8 nM
Ki (hCA IX): 51 ± 4.8 nM
Ki (hCA XII): 425 ± 41 nM
melting point: 296 to 298 °C

Cc1cc2oc(C(=O)Nc3ccc(S(N)(=O)=O)cc3)cc(=O)c2cc1Cl [5j, 6-Chloro-7-methyl-4-oxo-N-(4-sulfamoylphenyl)-4H-chromene-2-carboxamide]
Ki (hCA I): 580 ± 50.5 nM
Ki (hCA II): 901 ± 75.4 nM
Ki (hCA IX): 516 ± 37.2 nM
Ki (hCA XII): 155 ± 10.1 nM
melting point: 305 to 307 °C

NS(=O)(=O)c1ccc(CNC(=O)c2cc(=O)c3ccccc3o2)cc1 [6a, 4-Oxo-N-(4-sulfamoylbenzyl)-4H-chromene-2-carboxamide]
Ki (hCA I): 628 ± 35.5 nM
Ki (hCA II): 219 ± 11.8 nM
Ki (hCA IX): 855 ± 49.2 nM
Ki (hCA XII): 34 ± 2.2 nM
melting point: 284 to 286 °C

Cc1ccc2oc(C(=O)NCc3ccc(S(N)(=O)=O)cc3)cc(=O)c2c1 [6b, 6-Methyl-4-oxo-N-(4-sulfamoylbenzyl)-4H-chromene-2-carboxamide]
Ki (hCA I): 612 ± 49.5 nM
Ki (hCA II): 81.7 ± 4.2 nM
Ki (hCA IX): 2040 ± 189 nM
Ki (hCA XII): 320 ± 23.2 nM
melting point: 293 to 295 °C

NS(=O)(=O)c1ccc(CNC(=O)c2cc(=O)c3cc(Cl)ccc3o2)cc1 [6c, 6-Chloro-4-oxo-N-(4-sulfamoylbenzyl)-4H-chromene-2-carboxamide]
Ki (hCA I): 2650 ± 227 nM
Ki (hCA II): 679 ± 45 nM
Ki (hCA IX): 3280 ± 302 nM
Ki (hCA XII): 59.4 ± 5 nM
melting point: 299 to 301 °C

NS(=O)(=O)c1ccc(CCNC(=O)c2cc(=O)c3ccccc3o2)cc1 [6d, 4-Oxo-N-(4-sulfamoylphenethyl)-4H-chromene-2-carboxamide]
Ki (hCA I): 322 ± 27.9 nM
Ki (hCA II): 16.6 ± 1.2 nM
Ki (hCA IX): 81 ± 7.7 nM
Ki (hCA XII): 212 ± 13.7 nM
melting point: 248 to 250 °C

Cc1ccc2oc(C(=O)NCCc3ccc(S(N)(=O)=O)cc3)cc(=O)c2c1 [6e, 6-Methyl-4-oxo-N-(4-sulfamoylphenethyl)-4H-chromene-2-carboxamide]
Ki (hCA I): 247 ± 24.3 nM
Ki (hCA II): 36.4 ± 2.1 nM
Ki (hCA IX): 72.7 ± 4.3 nM
Ki (hCA XII): 439 ± 32.2 nM
melting point: 257 to 259 °C

Cc1ccc2c(=O)cc(C(=O)NCCc3ccc(S(N)(=O)=O)cc3)oc2c1 [6f, 7-Methyl-4-oxo-N-(4-sulfamoylphenethyl)-4H-chromene-2-carboxamide]
Ki (hCA I): 334 ± 17.5 nM
selectivity index (SI) hCA II compared to hCA I (hCA II; ratio of Ki values): 44.47
selectivity index (SI) hCA II compared to hCA XII (hCA II; ratio of Ki values): 44.97
Ki (hCA II): 7.5 ± 0.5 nM
Ki (hCA IX): 64.8 ± 3.4 nM
Ki (hCA XII): 337 ± 27.4 nM
melting point: 253 to 255 °C

CCc1ccc2oc(C(=O)NCCc3ccc(S(N)(=O)=O)cc3)cc(=O)c2c1 [6g, 6-Ethyl-4-oxo-N-(4-sulfamoylphenethyl)-4H-chromene-2-carboxamide]
Ki (hCA I): 971 ± 82.4 nM
Ki (hCA II): 280 ± 15.5 nM
Ki (hCA IX): 183 ± 16.1 nM
Ki (hCA XII): 148 ± 8.1 nM
melting point: 257 to 259 °C

Cc1cc2oc(C(=O)NCCc3ccc(S(N)(=O)=O)cc3)cc(=O)c2cc1C [6h, 6,7-Dimethyl-4-oxo-N-(4-sulfamoylphenethyl)-4H-chromene-2-carboxamide]
Ki (hCA I): 547 ± 39.2 nM
Ki (hCA II): 51.2 ± 3.6 nM
Ki (hCA IX): 51.4 ± 4.5 nM
Ki (hCA XII): 22.6 ± 1.5 nM
melting point: 282 to 284 °C

Cc1ccc2c(=O)cc(C(=O)NCCc3ccc(S(N)(=O)=O)cc3)oc2c1C [6i, 7,8-Dimethyl-4-oxo-N-(4-sulfamoylphenethyl)-4H-chromene-2-carboxamide]
Ki (hCA I): 214 ± 15.9 nM
Ki (hCA II): 39.2 ± 3.7 nM
Ki (hCA IX): 84.5 ± 4.3 nM
Ki (hCA XII): 132 ± 11 nM
melting point: 280 to 282 °C

Cc1cc(C)c2oc(C(=O)NCCc3ccc(S(N)(=O)=O)cc3)cc(=O)c2c1 [6j, 6,8-Dimethyl-4-oxo-N-(4-sulfamoylphenethyl)-4H-chromene-2-carboxamide]
Ki (hCA I): 4410 ± 347 nM
Ki (hCA II): 143 ± 12.8 nM
Ki (hCA IX): 91.1 ± 8.9 nM
Ki (hCA XII): 31.4 ± 2.6 nM
melting point: 283 to 285 °C

NS(=O)(=O)c1ccc(CCNC(=O)c2cc(=O)c3cc(Cl)ccc3o2)cc1 [6k, 6-Chloro-4-oxo-N-(4-sulfamoylphenethyl)-4H-chromene-2-carboxamide]
Ki (hCA I): 927 ± 68.9 nM
Ki (hCA II): 91.6 ± 7 nM
Ki (hCA IX): 1920 ± 146 nM
Ki (hCA XII): 41.4 ± 3.4 nM
melting point: 285 to 287 °C
